Experimental data published in patent US20050272068A1, “UCH-L1 expression and cancer therapy” (The Brigham and Women's Hospital, Inc., priority 2004, published 2005).
“Also recorded” adds a separate entry of the source.

How the values were obtained:
H1299 = experiment: Cell growth by counting living cells as a function of time, H1299; type: cell-based
Procedure: (§1) To test the effect of farnesyl transferase inhibitor in a cell culture model, H1299 and H358 (FIG. 5B) were treated with 100 nM FTI-277 or DMSO. As a comparison, H1299 was also treated with 5 μM LDN-57414 (UCH-L1 inhibitor), which we have previously shown to increase H1299 cell proliferation (Liu et al 2003). Cell growth was quantified by counting the number of living cells as a function of time. […] The initial acceleration of cell growth in H1299, thus, may be the consequence of inhibition on UCH-L1 farnesylation. This possibility may explain the minimal clinical activity of farnesyl transferase inhibitor in treating patients with NSCLC.

UCH-L1 [1] = experiment: UCH-L1 species in SH-SY5Y cells by 2D electrophoresis and Western blotting (membrane, cytosolic, total); type: cell-based
Procedure: Membrane fractionation: Cells were harvested by scraping and washed with PBS. Cell pellet was suspended in lysis buffer (50 mM Tris-HCl, 1 mM EDTA) supplemented with protease inhibitor cocktail (Sigma) and homogenized by passing through 26G needles 10 times. Suspension was clarified by spinning at 600 g for 5 minutes. Clarified suspension was ultracentrifuged at 100,000 g for 2 hours and separated into membrane and cytosol. Membrane fraction was washed with washing buffer (50 mM Tris-HCl, 1 mM EDTA 1M NaCl), and pelleted each time with bench-top centrifuge.
2D electrophoresis: For the isolation of total cellular protein, cultured SH—SY5Y cells maintained as described above were rinsed with ice-cold PBS. Cells were lysed in 1 ml dSDS buffer (50 mM Tris-HCl, pH 8.0 0.1% SDS) supplemented with protease inhibitor cocktail. Lysates were boiled for 3 min, and were treated with Dnase and Rnase as described. Lysates were precipitated with ice-cold acetone for at least 2 hours, and pellets were resuspended in 2D sample buffer (8M urea, 0.5% CHAPS, 0.2% DTT, 0.5% IPG buffer, 0.002% bromophenol blue). 2D electrophoresis was carried out according to manufacture's protocol (Amersham Life Science). 7 cm pH 4-7 strips were used. For SH—SY5Y membrane fraction, culture SH—SY5Y cells were rinsed with cold PBS and harvested with lysis buffer (50 mM Tris-HCl, pH 8.0, 1 mM ZnAc2, 250 mM sucrose). Lysate was passed through 25 G needles for several times and spun at 1000 g for 5 min. Supernatant was centrifuged at 200,000 g for 2 hours. Pellet was extensively washed with lysis buffer and extracted with cold acetone. Pellet was resuspended in 2D sample buffer.
Western Blotting: Following transfer of SDS gels onto NC membrane, all membranes were blocked with 5% non-fat milk in TBST (50 mM Tris-HCl pH7.4, 150 mM NaCl, 0.1% Tween 20), and incubated with primary antibody overnight with 1% BSA in TBST, washed three times with TBST, and incubated with horseradish peroxidase-conjugated secondary antibody for 1 hour (Promega). Bound antibodies were detected using enhanced chemiluminascence (NEM). […]

α-synuclein [2] = experiment: Amount of alpha-synuclein in infected SH-SY5Y cells by Western blotting; type: cell-based; settings: SH-SY5Y cells infected with alpha-synuclein-expressing adenovirus, normalized against actin
Procedure: (§2) Viral Infection: Viral infection and MTT assay in SH—SY5Y cells: The viruses were amplified and purified according to the published procedure. SH—SY5Y cells were grown on 100 mm petri-dishes and induced with 100 nM RA for 3-5 days before the virus infection with M.I.O at 75. Viruses were diluted with DPBS to desired M.I.O. After four hours of incubation, 10 ml growth medium was added. On the second day, cells were splitted into 96-well plates and treated with compounds for next 48 hours. The growth medium in each well was replaced with growth medium with 5 ug/ml MTT. Medium was removed after three hours incubation, and 200 ul isopropyl (0.04N HCl) was added into each well. The signal was read at 570 nm.
Western Blotting: Following transfer of SDS gels onto NC membrane, all membranes were blocked with 5% non-fat milk in TBST (50 mM Tris-HCl pH7.4, 150 mM NaCl, 0.1% Tween 20), and incubated with primary antibody overnight with 1% BSA in TBST, washed three times with TBST, and incubated with horseradish peroxidase-conjugated secondary antibody for 1 hour (Promega). Bound antibodies were detected using enhanced chemiluminascence (NEM).
Since α-synuclein neurotoxicity is dose-dependent, it follows that accumulation of α-synuclein, caused by UCH-L1 farnesylation, should promote its toxicity. […] (F) Cell viability was assessed by the amount of metabolic activity using MTT assay. […]

H358 = experiment: Cell growth by counting living cells as a function of time, H358; type: cell-based; settings: 100 nM FTI-277, H358 does not express UCH-L1, vs DMSO control
Procedure: as §1

UCH-L1 [3] = experiment: Pulse-chase experiment, UCH-L1 turnover in SH-SY5Y cells; type: cell-based; settings: pulse-chase experiment not shown
Excerpt: Treatment with FTI-277 reduced the total amount of UCH-L1 in SH—SY5Y cells and increased its rate of turnover (pulse-chase experiment not shown), in addition to reducing the amount of membrane-associated protein.

SH-SY5Y cells = experiment: alpha-synuclein toxicity in SH-SY5Y cells infected with alpha-synuclein-expressing adenovirus (Trypan blue viable cell counting, MTT assay); type: cell-based; settings: SH-SY5Y cells overexpressing alpha-synuclein via adenoviral vector, compounds for 48 hours, vs DMSO
Procedure: as §2
Viable cell counting: At stated time poins, SH—SY5Y cells were trypsinized with 100 ul trypsin-EDTA for 1 minute and neutralized with 400 ul growth medium. Cell suspension was made up by mixing 0.2 ml of cells in growth medium, 0.3 ml of HBSS and 0.5 ml of 0.4% Trypan Blue solution. Viable cell numbers were counted by standard cell counting chamber.
Since α-synuclein neurotoxicity is dose-dependent, it follows that accumulation of α-synuclein, caused by UCH-L1 farnesylation, should promote its toxicity. […] These cells express high endogenous levels of UCH-L1. […] The unit of y-axis is 10^5/ml. (F) Cell viability was assessed by the amount of metabolic activity using MTT assay. […]

α-synuclein [4] = experiment: alpha-synuclein degradation assay in transfected COS-7 cells (quantitative Western blotting); type: cell-based; settings: 35 μM lactacystin 24 hours, normalized against actin, defines the 100% reference
Excerpt: Plasmids: C220S cDNA was generated by PCR site-specific mutagenesis. For the PCR, the 5′ primer is uchforw ([…]) (SEQ ID NO: 5), and 3′ primer is uchc220s ([…] TGCTGAGAGC) (SEQ ID NO: 6). Wt UCH-L1 served as the template. The PCR fragment was inserted into pcDNA vector. For S18YC220S mutant, S18Y UCH-L1 served as the template in PCR. For the FLAG tagged UCH-L1, the 5′ primer is FLAGuchforw ([…] GCAGCTCAAGCCGATGGAG) (SEQ ID NO: 7), and the 3′ primer is uchrev ([…]) (SEQ ID NO: 8). Wt UCH-L1 or C220S served as the template. PCR fragment was purified and inserted into pcDNA vector. For the FLAG tagged UCH-L3, the 5′ primer is L3HindIII ([…] CTG) (SEQ ID NO: 9), the 3′primer is L3XhoISAA (ATCCTCGAGCTATGCT GCAGAAAGAGCAATCGCA) (SEQ ID NO: 10). For the UCH-L3 CKAA variant, the 5′ primer is L3 HindIII and the 3′ primer is L3XhoICKAA (ATCCTCGAGCTA […]) (SEQ ID NO: 11). α-synuclein degradation assay: Liphitamine 2000 was used to transfect COS-7 cells according to the Invitrogen protocol. Transfected cells were cultured at 37° C. for 48 hours before being treated with 35 μM lactacystin or DMSO. After 24 hours of incubation, the cells were lysed with Tris buffer (50 mM Tris, 2% SDS, 0.1% NP-40), and subjected to SDS-PAGE, followed by quantitative Western blotting. […]

[5] = target: the molecule itself; experiment: self-oligomerisation of purified protein, method not described
[6] = compared to cells treated with DMSO

For `COC(=O)[C@H](CCSC)NC(=O)c1ccc(NC[C@@H](N)CS)cc1-c1ccccc1` [FTI-277], the “initial cell growth in H1299” value (H1299; 100 nM FTI-277, vs DMSO control) was “promoted initial cell growth”, the “H1299 cell growth after 24 hours of compound treatment” value (H1299; 100 nM FTI-277 or 5 μM LDN-57414) was “began to show toxicity” and the “total amount of UCH-L1” value (UCH-L1 [1]) was “reduced”. The “amount of cytosolic UCH-L1” value (UCH-L1 [1]; [6]) was “without affecting”, the “amount of membrane bound UCH-L1” value (UCH-L1 [1]; [6]) was “significant decrease; also recorded: decreased; also recorded: reducing” and the amount of alpha-synuclein (α-synuclein [2]) was “reduced; also recorded: reducing”. The “initial cell growth in H358” value (H358) was “induced initial toxicity”, the “UCH-L1 rate of turnover” value (UCH-L1 [3]) was “increased” and the “alpha-synuclein toxicity (loss of cells / viability)” value (SH-SY5Y cells) was “significantly decreased loss of cells; also recorded: rescued; also recorded: protects”.

Molecule `CC(=O)N[C@@H](CSC(=O)[C@]1([C@@H](O)C(C)C)NC(=O)[C@H](C)[C@@H]1O)C(=O)O` [lactacysteine] has an accumulation of alpha-synuclein (α-synuclein [4]) of 100%.

B1: UCH-L1 C220S mutant (S18 background), expressed in E. coli and purified (enzyme, UniProt P09936 1-223, looked up)
chain: MQLKPMEINPEMLNKVLSRLGVAGQWRFVDVLGLEEESLGSVPAPACALLLLFPLTAQHENFRKKQIEELKGQEVSPKVYFMKQTIGNSCGTIGLIHAVANNQDKLGFEDGSVLKQFLSETEKMSPEDRAKCFEKNEAIQAAHDAVAQEGQCRVDDKVNFHFILFNNVDGHLYELDGRMPFPVNHGASSEDTLLKDAAKVCREFTEREQGEVRFSAVALSKAA
notes: also called C220S variant
B1: binds [5].
